Laboratory results taken from patent US8354419B2, “Benzimidazole analogues for the treatment or prevention of flavivirus infections” (Vertex Pharmaceuticals Incorporated, priority 2009, dated 2013).
pEC50: −log10 of the molar value.

Tested on: HCV (Ib) RNA replication
Assay: Cell-based luciferase reporter HCV (1b) RNA replication assay (replicon cell lines Huh-7 5.2 and ET)
Set-up: species or system Hepatitis C virus
Conditions: Hepatitis C virus, Huh-7, 96 h, HCV 1b genotype replicon, luciferase readout, 4 days incubation; read-out: EC50_1b
Source text: Cell-Based Luciferase Reporter HCV (Ib) RNA Replication Assay Cell Culture
Replicon cell lines Huh-7, 5.2 and ET which are derived from the Huh-7 hepatocarcinoma cell line are maintained in culture as generally described in Krieger, N; Lohmann, V; Bartenschlager, R. Enhancement of hepatitis C virus RNA replication by cell culture-adaptive mutations. J. Virol. 2001, 75, 4614-4624. The Huh-7, 5.2 cells contain the highly cell culture-adapted replicon I389luc-ubi-neo/NS3-3′/5.1 construct that carries, in addition to the neomycin gene, an integrated copy to the firefly luciferase gene (Krieger, N; Lohmann, V; Bartenschlager, R. Enhancement of hepatitis C virus RNA replication by cell culture-adaptive mutations. J. Virol. 2001, 75, 4614-4624). This cell line allows measurement of HCV RNA replication and translation by measuring luciferase activity. It has been previously shown that the luciferase activity tightly follows the replicon RNA level in these cells (Krieger, N; Lohmann, V; Bartenschlager, R. Enhancement of hepatitis C virus RNA replication by cell culture-adaptive mutations. J. Virol. 2001, 75, 4614-4624). The Huh-7, ET cell line has the same features as those mentioned for Huh-7, 5.2 cell line, except that ET cells are more robust and contain an adaptative mutation in the HCV NS4B gene instead of NS5A. Both cell lines are maintained in cultures at a sub-confluent level (<85%) as the level of replicon RNA is highest in actively proliferating cells. The culture media used for cell passaging consist of DMEM (Gibco BRL Laboratories, Mississauga, ON, Canada) supplemented with 10% foetal bovine serum with 1% penicillin/streptomycin, 1% glutamine, 1% sodium pyruvate, 1% non-essential amino acids, and 180 ug/ml of G418 final concentration. Cells are incubated at 37° C., in an atmosphere of 5% CO2 and passaged twice a week to maintain sub-confluence.
Approximately 3000 viable Huh-7, 5.2 or ET cells (100 μl) are plated per well in a white opaque 96-well microtiter plate. The cell culture media used for the assay is the same as described above except that it contains no G418 and no phenol red. After an incubation period of 3-4 hours at 37° C. in a 5% CO2 incubator, compounds (100 μl) are added at various concentrations. Cells are then further incubated for 4 days at 37° C. in a 5% CO2 incubator. Thereafter, the culture media is removed and cells are lysed by the addition of 95 μL of the luciferase buffer (luciferin substrate in buffered detergent). Cell lysates are incubated at room temperature and protected from direct light for at least 10 minutes. Plates are read for luciferase counts using a luminometer (Wallac MicroBeta Trilux, Perkin ELmer™, MA, USA).
The 50% inhibitory concentrations (IC50s) for inhibitory effect are determined from dose response curves using eleven concentrations per compound in duplicate. Curves are fitted to data points using nonlinear regression analysis, and IC50s are interpolated from the resulting curve using GraphPad Prism software, version 2.0 (GraphPad Software Inc., San Diego, Calif., USA).
Table 2 show compounds representative of the present invention and the EC50 values against the HCV 1b genotype.

Compound	pEC50
COC(=O)NC(C(=O)N1C[C@H](O)C[C@H]1c1nc2ccc(-c3ccc(-c4ccc5[nH]c([C@@H]6C[C@@H](O)CN6C(=O)[C@@H](NC(=O)OC)C(C)C)nc5c4)cc3)cc2[nH]1)C(C)C (stereo in doubt) [Compound 26, ((S)-1-{(2S,4R)-4-Hydroxy-2-[5-(4-{2-[(2S,4R)-4-hydroxy-1-((S)-2-methoxycarbonylamino-3-methyl-butyryl)-pyrrolidin-2-yl]-1H-benzoimidazol-5-yl}-phenyl)-1H-benzoimidazol-2-yl]-pyrrolidine-1-carbonyl}-2-methyl-propyl)-carbamic acid methyl ester]	≥ 8.30
COC(=O)N[C@H](C(=O)N1CCC[C@H]1c1nc2cc(-c3ccc(-c4ccc5nc([C@@H]6CCCN6C(=O)[C@@H](NC(=O)OC)C(C)C)[nH]c5c4)cc3)ccc2[nH]1)C(C)C [Compound 1, ((S)-1-{(S)-2-[5-(4-{2-[(S)-1-((S)-2-Methoxycarbonylamino-3-methyl-butyryl)-pyrrolidin-2-yl]-1H-benzoimidazol-5-yl}-phenyl)-1H-benzoimidazol-2-yl]-pyrrolidine-1-carbonyl}-2-methyl-propyl)-carbamic acid methyl ester]	≥ 8.30
COC(=O)N[C@H](C(=O)N1CCC[C@H]1c1nc2ccc(-c3cccc(-c4ccc5nc([C@@H]6CCCN6C(=O)[C@@H](NC(=O)OC)C(C)C)[nH]c5c4)c3)cc2[nH]1)C(C)C [Compound 2, ((S)-1-{(S)-2-[5-(3-{2-[(S)-1-((S)-2-Methoxycarbonylamino-3-methyl-butyryl)-pyrrolidin-2-yl]-1H-benzoimidazol-5-yl}-phenyl)-1H-benzoimidazol-2-yl]-pyrrolidine-1-carbonyl}-2-methyl-propyl)-carbamic acid methyl ester]	5.30 to 8.30
COC(=O)N[C@H](C(=O)N1CC(F)(F)C[C@H]1c1nc2cc(-c3ccc(-c4ccc5nc([C@@H]6CC(F)(F)CN6C(=O)[C@@H](NC(=O)OC)C(C)C)[nH]c5c4)cc3)ccc2[nH]1)C(C)C [Compound 3, ((S)-1-{(S)-2-[5-(4-{2-[(S)-4,4-Difluoro-1-((S)-2-methoxycarbonylamino-3-methyl-butyryl)-pyrrolidin-2-yl]-1H-benzoimidazol-5-yl}-phenyl)-1H-benzoimidazol-2-yl]-4,4-difluoro-pyrrolidine-1-carbonyl}-2-methyl-propyl)-carbamic acid methyl ester]	≥ 8.30
COC(=O)N(C)[C@H](C(=O)N1CCC[C@H]1c1nc2cc(-c3ccc(-c4ccc5nc([C@@H]6CCCN6C(=O)[C@H](C(C)C)N(C)C(=O)OC)[nH]c5c4)cc3)ccc2[nH]1)C(C)C [Compound 4, [(S)-1-((S)-2-{5-[4-(2-{(S)-1-[(S)-2-(Methoxycarbonyl-methyl-amino)-3-methyl-butyryl]-pyrrolidin-2-yl}-1H-benzoimidazol-5-yl)-phenyl]-1H-benzoimidazol-2-yl}-pyrrolidine-1-carbonyl)-2-methyl-propyl]-methyl-carbamic acid methyl ester]	≥ 8.30
COC(=O)N[C@H](C(=O)N1CCC[C@H]1c1nc2cc(-c3ccc(-c4ccc5nc([C@@H]6CCCN6C(=O)[C@@H](NC(=O)OC)C(C)C)[nH]c5c4)cc3C#N)ccc2[nH]1)C(C)C [Compound 5, ((S)-1-{(S)-2-[5-(2-Cyano-4-{2-[(S)-1-((S)-2-methoxycarbonylamino-3-methyl-butyryl)-pyrrolidin-2-yl]-1H-benzoimidazol-5-yl}-phenyl)-1H-benzoimidazol-2-yl]-pyrrolidine-1-carbonyl}-2-methyl-propyl)-carbamic acid methyl ester]	≥ 8.30
COC(=O)N[C@H](C(=O)N1CCC[C@H]1c1nc2cc(-c3ccc(-c4ccc5nc([C@@H]6CCCN6C(=O)[C@@H](NC(=O)OC)C(C)C)[nH]c5c4)cn3)ccc2[nH]1)C(C)C [Compound 6, ((S)-1-{(S)-2-[5-(5-{2-[(S)-1-((S)-2-Methoxycarbonylamino-3-methyl-butyryl)-pyrrolidin-2-yl]-1H-benzoimidazol-5-yl}-pyridin-2-yl)-1H-benzoimidazol-2-yl]-pyrrolidine-1-carbonyl}-2-methyl-propyl)-carbamic acid methyl ester]	≥ 8.30
COC(=O)N[C@H](C(=O)N1CCC[C@H]1c1nc2cc(-c3ccc(-c4ccc5nc([C@@H]6CCCN6C(=O)[C@@H](NC(=O)OC)C(C)C)[nH]c5c4)cc3C)ccc2[nH]1)C(C)C [Compound 7, ((S)-1-{(S)-2-[5-(4-{2-[(S)-1-((S)-2-Methoxycarbonylamino-3-methyl-butyryl)-pyrrolidin-2-yl]-1H-benzoimidazol-5-yl}-2-methyl-phenyl)-1H-benzoimidazol-2-yl]-pyrrolidine-1-carbonyl}-2-methyl-propyl)-carbamic acid methyl ester]	≥ 8.30
COC(=O)N[C@H](C(=O)N1CCC[C@H]1c1nc2cc(-c3ccc(-c4ccc5nc([C@@H]6CCCN6C(=O)[C@@H](NC(=O)OC)C(C)C)[nH]c5c4)cc3OC)ccc2[nH]1)C(C)C [Compound 8, ((S)-1-{(S)-2-[5-(2-Methoxy-4-{2-[(S)-1-((S)-2-methoxycarbonylamino-3-methyl-butyryl)-pyrrolidin-2-yl]-1H-benzoimidazol-5-yl}-phenyl)-1H-benzoimidazol-2-yl]-pyrrolidine-1-carbonyl}-2-methyl-propyl)-carbamic acid methyl ester]	≥ 8.30
COC(=O)N[C@H](C(=O)N1CCC[C@H]1c1nc2cc(-c3ccc(-c4ccc5nc([C@@H]6CCCN6C(=O)[C@@H](NC(=O)OC)C(C)C)[nH]c5c4)cc3F)ccc2[nH]1)C(C)C [Compound 9, ((S)-1-{(S)-2-[5-(2-Fluoro-4-{2-[(S)-1-((S)-2-methoxycarbonylamino-3-methyl-butyryl)-pyrrolidin-2-yl]-1H-benzoimidazol-5-yl}-phenyl)-1H-benzoimidazol-2-yl]-pyrrolidine-1-carbonyl}-2-methyl-propyl)-carbamic acid methyl ester]	≥ 8.30
COC(=O)N[C@H](C(=O)N1CCC[C@H]1c1nc2cc(-c3ccc(-c4ccc5[nH]c([C@@H]6CCCN6C(=O)[C@@H](NC(=O)OC)C(C)C)nc5c4)c(Cl)c3)ccc2[nH]1)C(C)C [Compound 10, ((S)-1-{(S)-2-[5-(2-Chloro-4-{2-[(S)-1-((S)-2-methoxycarbonylamino-3-methyl-butyryl)-pyrrolidin-2-yl]-1H-benzoimidazol-5-yl}-phenyl)-1H-benzoimidazol-2-yl]-pyrrolidine-1-carbonyl}-2-methyl-propyl)-carbamic acid methyl ester]	≥ 8.30
COC(=O)N[C@H](C(=O)N1CCC[C@H]1c1nc2cc(-c3ccc(-c4ccc5[nH]c([C@@H]6CCCN6C(=O)[C@@H](NC(=O)OC)C(C)C)nc5c4)c(C#N)n3)ccc2[nH]1)C(C)C [Compound 11, ((S)-1-{(S)-2-[5-(2-Cyano-6-{2-[(S)-1-((S)-2-methoxycarbonylamino-3-methyl-butyryl)-pyrrolidin-2-yl]-1H-benzoimidazol-5-yl}-pyridin-3-yl)-1H-benzoimidazol-2-yl]-pyrrolidine-1-carbonyl}-2-methyl-propyl)-carbamicacid methyl ester]	5.30 to 8.30
COC(=O)N[C@H](C(=O)N1CCC[C@H]1c1nc2ccc(-c3cc(OC)c(-c4ccc5nc([C@@H]6CCCN6C(=O)[C@@H](NC(=O)OC)C(C)C)[nH]c5c4)cc3OC)cc2[nH]1)C(C)C [Compound 12]	≥ 8.30
COC(=O)N[C@H](C(=O)N1CCC[C@H]1c1nc2cc(-c3ccc(-c4ccc5[nH]c([C@@H]6CCCN6C(=O)[C@@H](NC(=O)OC)C(C)C)nc5c4)c(C)c3C)ccc2[nH]1)C(C)C [Compound 13, ((S)-1-{(S)-2-[5-(4-{2-[(S)-1-((S)-2-Methoxycarbonylamino-3-methyl-butyryl)-pyrrolidin-2-yl]-1H-benzoimidazol-5-yl}-2,3-dimethyl-phenyl)-1H-benzoimidazol-2-yl]-pyrrolidine-1-carbonyl}-2-methyl-propyl)-carbamic acid methyl ester]	≥ 8.30
